{
  "source": "patent US9499493B2",
  "about": "“2,4-pyrimidinediamine compounds and their uses” (Rigel Pharmaceuticals, Inc., priority 2002, dated 2016)",
  "key": {"[1]": {"test_system": "cultured human mast cells (CHMC)", "test": "CHMC high cell density IgE activation: hexos (hexosaminidase) release", "format": "cell-based", "conditions": "anti-IgE activation", "method_in_brief": "(§1)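 IgE-sensitized CHMC at 1-2×10^6 cells/ml were pretreated with compound for 1 h at 37 °C (0.5% DMSO final), then anti-IgE-stimulated for 1 h and supernatant collected. Hexosaminidase was read with a fluorogenic substrate. Pellets were re-incubated 7 h with compound before supernatant ELISAs.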"}, "[2]": {"test_system": "cultured human mast cells (CHMC)", "test": "CHMC high cell density IgE activation: LTC4", "format": "cell-based", "conditions": "anti-IgE activation", "description": "(§2) Inhibition of degranulation was measured at both low and high cell density by quantifying the release of the granule specific factors tryptase, histamine and hexosaminidase. Inhibition of release and/or synthesis of lipid mediators was assessed by measuring the release of leukotriene LTC4 and inhibition of release and/or synthesis of cytokines was monitored by quantifying TNF-α, IL-6 and IL-13. Tryptase and hexosaminidase were quantified using fluorogenic substrates as described in their respective examples. […] The protocols of the various assays are provided below.\n(§3) After sensitizing, cells are counted, pelleted (1000 rpm, 5-10 minutes), and resuspended at 1-2×10^6 cells/ml in MT buffer. Add 100 ul of cell suspension to each well and 100 ul of compound dilutions. The final vehicle concentration is 0.5% DMSO. Incubate at 37° C. (5% CO2) for 1 hour. After 1 hour of compound treatment, stimulate cells with 6× anti-IgE. Mix wells with the cells and allow plates to incubate at 37° C. (5% CO2) for one hour. After 1 hour incubation, pellet cells (10 minutes, 1000 RPM) and collect 200 ul per well of the supernatant, being careful not to disturb pellet. Place the supernatant plate on ice. During the 7-hour step (see next) perform tryptase assay on supernatant that had been diluted 1:500. Resuspend cell pellet in 240 ul of CM media containing 0.5% DMSO and corresponding concentration of compound. Incubate CHMC cells for 7 hours at 37° C. (5% CO2). After incubation, pellet cells (1000 RPM, 10 minutes) and collect 225 ul per well and place in −80° C. until ready to perform ELISAS. ELISAS are performed on appropriately diluted samples (determined empirically for each donor cell population so that the sample measurement falls within the standard curve) following the supplier's instructions."}, "[3]": {"test_system": "cultured human mast cells (CHMC)", "test": "CHMC high cell density IgE activation: IL-13", "format": "cell-based", "conditions": "anti-IgE activation", "description": "as §2, §3"}, "[4]": {"test_system": "bone marrow derived mast cells (BMMC)", "test": "BMMC high cell density IgE activation: LTC4", "format": "cell-based, mouse", "conditions": "anti-IgE, second part of TABLE 1", "method_in_brief": "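IgE-sensitized BMMC (1-3×10^6 cells/ml, MT buffer) were pretreated with compound for 1 h at 37 °C in 0.5% DMSO, then stimulated with DNP-BSA (6× stimulus, 60 ng/ml) for 1 h. Supernatant was taken, and cells were re-incubated 4–5 h in WEI-conditioned medium with compound. Mediators were quantified by ELISA.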"}, "[5]": {"test_system": "bone marrow derived mast cells (BMMC)", "test": "BMMC high cell density IgE activation: IL-6", "format": "cell-based, mouse", "conditions": "anti-IgE, second part of TABLE 1", "description": "as §2\nAfter sensitizing, cells are counted, pelleted (1000 rpm, 5-10 minutes), and resuspended at 1-3×10^6 cells/ml in MT buffer. Add 100 ul of cell suspension to each well and 100 ul of compound dilutions. The final vehicle concentration is 0.5% DMSO. Incubate at 37° C. (5% CO2) for 1 hour. After 1 hour of compound treatment, stimulate cells with 6× stimulus (60 ng/ml DNP-BSA). Mix wells with the cells and allow plates to incubate at 37° C. (5% CO2) for one hour. After 1 hour incubation, pellet cells (10 minutes, 1000 RPM) and collect 200 ul per well of the supernatant, being careful not to disturb pellet, and transfer to a clean tube or 96-well plate. Place the supernatant plate on ice. During the 4-5 hour step (see next) perform the hexosiminidase assay. Resuspend cell pellet in 240 ul WEI-conditioned media containing 0.5% DMSO and corresponding concentration of compound. Incubate BMMC cells for 4-5 hours at 37° C. (5% CO2). After incubation, pellet cells (1000 RPM, 10 minutes) and collect 225 ul per well and place in −80° C. until ready to perform ELISAS. ELISAS are performed on appropriately diluted samples (determined empirically for each donor cell population so that the sample measurement falls within the standard curve) following the supplier's instructions."}, "basophil cells [6]": {"test_system": "basophil cells", "test": "Basophil IgE activation: histamine release assay", "format": "cell-based, human", "conditions": "Basophils, anti-IgE", "description": "(§4) The basophil activation assay was carried out using whole human peripheral blood from donors allergic to dust mites with the majority of the red blood cells removed by dextran sedimentation. Human peripheral blood was mixed 1:1 with 3% dextran T500 and RBCs were allowed to settle for 20-25 min. The upper fraction was diluted with 3 volumes of D-PBS and cells were spun down for 10 min at 1500 rpm, RT. Supernatant was aspirated and cells were washed in an equal volume MT-buffer. Finally, cells were resuspended in MT-buffer containing 0.5% DMSO in the original blood volume. 80 uL cells were mixed with 20 uL compound in the presence of 0.5% DMSO, in triplicate, in a V-bottom 96-well tissue culture plate. A dose range of 8 compound concentrations was tested resulting in a 10-point dose response curve including maximum (stimulated) and minimum (unstimulated) response. […] The cells were stimulated for 30 minutes at 37° C., 5% CO2. The plate was spun for 10 min at 1500 rpm at room temperature and 80 uL the supernatant was harvested for histamine content analysis using the histamine ELISA kit supplied by Immunotech. The ELISA was performed according to supplier's instructions."}, "basophil cells [7]": {"test_system": "basophil cells", "test": "Basophil ionomycin activation: histamine release assay", "format": "cell-based, human", "conditions": "Basophils", "description": "as §4\nAssays for ionomycin-induced basophil cell degranulation were carried out as described for the Basophil IgE or Dustmite Activation Assay (Section 6.4.6, supra), with the exception that following incubation with compound, cells were stimulated with 20 μl of 2 μM ionomycin."}, "B-cell line BJAB": {"test_system": "B-cell line BJAB", "test": "BJAB toxicity, Cell Titer Glo assay", "format": "cell-based", "conditions": "18 hours incubation", "description": "Seed 50 μl cells (1×10^6/ml) into each well containing 50 μl compound. The final vehicle concentration is 0.5% DMSO, 1.5% MeOH. Shake plates for 1 minute to mix cells and compound. Incubate plates at 37° C. (5% CO2) for 18 hours. Next day, harvest 50 μl cells from each well, add to 50 μl Cell Titer Glo reagent ([…]). Shake plates for 1 minute. Read on luminometer."}, "[8]": {"test_system": "cultured human mast cells (CHMC)", "test": "CHMC high cell density IgE activation: TNFalpha", "format": "cell-based", "conditions": "anti-IgE activation; read-out: CHMC high density TNF-alpha", "method_in_brief": "as §1"}, "[9]": {"test": "Pilot dose finding studies (oral)", "conditions": "in vivo"}, "[10]": {"test_system": "Salmonella-Escherichia coli tester strains"}},
  "data": [
    {"smiles": "CNC(=O)COc1cccc(Nc2ncc(F)c(Nc3cccc(O)c3)n2)c1", "note": "[R926508, 5-Fluoro-N4-(3-hydroxyphenyl)-N2-[3-(N-methylamino)carbonylmethyleneoxyphenyl]-2,4-pyrimidinediamine]", "values": [
      {"measurement": "IC50", "setting": "[1]", "result": 170, "unit": "nM"},
      {"measurement": "IC50", "setting": "[2]", "result": 505, "unit": "nM"},
      {"measurement": "IC50", "setting": "[3]", "result": 763, "unit": "nM"},
      {"measurement": "IC50", "setting": "[4]", "result": 162, "unit": "nM"},
      {"measurement": "IC50", "setting": "[5]", "result": 26, "unit": "nM"},
      {"measurement": "IC50", "setting": "basophil cells [6]", "result": 65, "unit": "nM"},
      {"measurement": "IC50", "setting": "basophil cells [7]", "result": "> 10000", "unit": "nM"},
      {"measurement": "IC50", "setting": "B-cell line BJAB", "result": "> 10000", "unit": "nM"}
    ]},
    {"smiles": "CNC(=O)COc1cccc(Nc2ncc(F)c(Nc3ccc4c(c3)NCCO4)n2)c1", "note": "[R921219, N4-(1,4-Benzoxazin-6-yl)-5-fluoro-N2-[3-(N-methylamino)carbonylmethyleneoxyphenyl]-2,4-pyrimidinediamine]", "values": [
      {"measurement": "IC50", "setting": "[2]", "result": 34, "unit": "nM"},
      {"measurement": "IC50", "setting": "[8]", "result": 190, "unit": "nM"},
      {"measurement": "IC50", "setting": "[3]", "result": 175, "unit": "nM"},
      {"measurement": "IC50", "setting": "[4]", "result": 40, "unit": "nM"},
      {"measurement": "IC50", "setting": "basophil cells [6]", "result": 25, "unit": "nM"},
      {"measurement": "IC50", "setting": "basophil cells [7]", "result": "> 10000", "unit": "nM"},
      {"measurement": "IC50", "setting": "B-cell line BJAB", "result": "> 10000", "unit": "nM"},
      {"measurement": "multiple (7-day) doses not tolerated", "setting": "[9]", "result": "≥ 200", "unit": "mg/kg/day"},
      {"measurement": "Ames test result", "setting": "[10]", "result": "test positive in tester strain TA1537, with and without metabolic activation"}
    ]}
  ]
}
